Assay [1] relates to HDQ-P1. The experiment in a line: normalised viability (% of control), CellTiter-Blue; higher = more viable cells (about 100 = DMSO control). To be noted: incubation time: 72 h. Summed up: (§1)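 The reported figure is normalised viability at a single listed concentration of the series. Breast cancer cell lines (20 µl suspension) went onto 384-well plates holding compound in 5 µl medium for 72 h. CellTiter-Blue (2.5 µl, 2 h, 37 °C) was read by fluorescence at 560/590 nm, and each plate was scaled to vehicle at 100 and a positive kill control at 0.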

For assay [2], the system named is CAL-120. Described as above. To be noted: incubation time: 72 h. The essentials:
as §1

For assay [3], the system named is DU-4475. The experiment in a line: drug sensitivity score (DSS), CellTox Green (DSS (AUC-based score)); higher = stronger drug effect (viability inhibition or cytotoxicity); extreme values may be limits of the assay. Conditions: incubation time: 72 h. Summed up: (§2)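 Breast cancer cells were seeded into 384-well plates containing compound at 5 concentrations in 10-fold steps over a compound-specific 10,000-fold range and incubated 72 h. After CellTox Green and CellTiter-Glo readings, each plate was normalised to 0.1 % DMSO and a positive kill control. The drug sensitivity score rests on the area under the fitted dose-response curve.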

For assay [4], the system named is CAL-148. The assay is described as above. Conditions: incubation time: 72 h. Summed up: as §2
For assay [5], the system named is MDA-MB-453. The experiment in a line: normalised viability (% of control), CellTiter-Blue; higher = more viable cells (100 = DMSO, 0 = benzethonium chloride kill control). To be noted: incubation time: 72 h. How it is done:
(§3)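 DSRT, CellTiter-Blue viability, 72 h incubation. Signal is normalised to DMSO and benzethonium chloride controls. Value is the normalised response at dose 1.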

The subject of assay [6] is CAL-85-1. The description is as above. Conditions: incubation time: 72 h. How it is done:
as §3

For another assay, the system named is MFM-223. Described as above. Conditions: incubation time: 72 h. On the procedure: as §3
The test system of assay [7] is DU-4475. The description is as above. Conditions: incubation time: 72 h. How it is done:
as §3

The subject of assay [8] is CAL-148. The description is as above. To be noted: incubation time: 72 h. On the procedure: as §3
A further assay deals with HCC1143. Described as above. To be noted: 1 nM; incubation time: 72 h. On the procedure: as §3
In assay [9] the test system is CAL-51. The description is as above. Conditions: incubation time: 72 h. How it is done: as §3
For a further assay, the system named is BT-549. The description is as above. Conditions: incubation time: 72 h. How it is done:
as §3

For a further assay, the system named is MDA-MB-231. The assay is described as above. Conditions: incubation time: 72 h. How it is done: as §3
In another assay the test system is HCC1937. Described as above. Conditions: incubation time: 72 h. On the procedure:
as §3

For the next assay, the system named is SK-BR-3. The assay is described as above. To be noted: incubation time: 72 h. How it is done:
as §3

Assay [10] relates to CAL-120. The description is as above. Conditions: incubation time: 72 h. On the procedure: as §3
The next assay concerns MDA-MB-436. The description is as above. To be noted: incubation time: 72 h. How it is done:
as §3

The next assay has as its system HCC1599. The description is as above. To be noted: incubation time: 72 h. On the procedure:
as §3

The subject of the next assay is Hs578T. The description is as above. Conditions: incubation time: 72 h. How it is done:
as §3

Another assay has as its system MDA-MB-468. The assay is described as above. Conditions: incubation time: 72 h. How it is done:
as §3

In assay [11] the test system is MDA-MB-453. The experiment in a line: normalised viability (% of control), CellTiter-Blue; higher = more viable cells (about 100 = DMSO control). To be noted: incubation time: 72 h. How it is done:
(§4)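 DSRT, CellTiter-Blue viability, 72 h incubation. Signal is normalised to DMSO and benzethonium chloride controls. Value is the normalised response at dose 9.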
(The colour change of resazurin is a common sign of viable cells or microbes.)

Assay [12] relates to CAL-85-1. The assay is described as above. Conditions: incubation time: 72 h. On the procedure:
as §4

Assay [13] deals with DU-4475. The description is as above. Conditions: incubation time: 72 h. On the procedure: as §4
Assay [14] relates to CAL-148. Described as above. To be noted: incubation time: 72 h. How it is done: as §4
Assay [15] relates to CAL-51. The description is as above. To be noted: incubation time: 72 h. How it is done: as §4
The subject of assay [16] is HDQ-P1. Described as above. To be noted: incubation time: 72 h. On the procedure: as §4
The source holds these as a separate data set.

Assay [17] has as its system HDQ-P1. The experiment in a line: normalised viability (% of control), CellTiter-Blue; higher = more viable cells (100 = DMSO, 0 = benzethonium chloride kill control). To be noted: 0.1 nM; incubation time: 72 h. How it is done:
as §3

Structures are written as SMILES. Several values for one entry are separate records, joined by “and”; a condition that tells them apart may be missing. Equal values may be shown once.

As to `Cc1ccc(NC(=O)c2ccc(CN3CCN(C)CC3)cc2)cc1Nc1nccc(-c2cccnc2)n1` [Imatinib], the normalised viability with HDQ-P1 [1] (30 nM) is 89.2% and 107%; in the assay on CAL-120 [2] (1000 nM), 86.6% and 91.9%; with MDA-MB-453 [5] (1 nM) it was 106% and 102%; with CAL-85-1 [6] (1 nM), 87.5% and 85.1%; in the assay with MFM-223 (1 nM), 93.1% and 97.1%; with DU-4475 [7] (1 nM), 99% and 111%. Also, the normalised viability with CAL-148 [8] (1 nM) was 86.2% and 97.6%; with HCC1143, 88.9% and 93%; in the assay on CAL-51 [9] (1 nM) it was 99.8% and 100%; in the assay with BT-549 (1 nM), 104% and 116%; with MDA-MB-231 (1 nM) it was 90.8% and 95.5%; in the assay on HCC1937 (1 nM) it was 81.9% and 101%. In addition, the normalised viability with SK-BR-3 (1 nM) is 89.3% and 102%; in the assay on CAL-120 [10] (1 nM), 88.5% and 91%; with MDA-MB-436 (1 nM), 90.1% and 106%; in the assay on HCC1599 (1 nM), 109% and 104%; with Hs578T (1 nM) it was 99.3% and 102%; in the assay with MDA-MB-468 (1 nM) it was 102% and 105%. In addition, the normalised viability in the assay on MDA-MB-453 [11] (10000 nM) is 57.6% and 48.6%; in the assay with CAL-85-1 [12] (10000 nM), 87.7% and 85.9%; with DU-4475 [13] (10000 nM), 121% and 110%; in the assay on CAL-148 [14] (10000 nM) it was 80.5% and 92.7%; in the assay on CAL-51 [15] (10000 nM), 110% and 93.9%. The drug sensitivity score in the assay on DU-4475 [3] and in the assay with CAL-148 [4] was 0 each time.
On to `Nc1ncnc2c1c(COc1cccc(Cl)c1)nn2C1CCOCC1`, for which the drug sensitivity score in the assay with DU-4475 [3] and in the assay on CAL-148 [4] was 0 in each case.
As to `Cc1cc2c(C(C)C)c(O)c(O)c(C=O)c2c(O)c1-c1c(C)cc2c(C(C)C)c(O)c(O)c(C=O)c2c1O` [Gossypol], the normalised viability came to 141% in the assay with HDQ-P1 [1] (300 nM); 37.5% with CAL-120 [2] (10000 nM); 2.75% in the assay with MDA-MB-453 [11] (100000 nM); 3.4% in the assay on CAL-85-1 [12] (100000 nM); 4.97% in the assay with DU-4475 [13] (100000 nM); 3.73% in the assay with CAL-148 [14] (100000 nM). For the same molecule, the results for the normalised viability in the assay on CAL-51 [15] (100000 nM) and with HDQ-P1 [16] (100000 nM) were 2.71% and 4.15%, respectively.
Take `CC(C)c1c(C(=O)Nc2ccccc2)c(-c2ccccc2)c(-c2ccc(F)cc2)n1CC[C@@H](O)C[C@@H](O)CC(=O)O` [Atorvastatin]: the drug sensitivity score with DU-4475 [3] and with CAL-148 [4] was 0 in each case.
In the case of `CO[C@H]1C[C@@H]2CC[C@@H](C)[C@@](O)(O2)C(=O)C(=O)N2CCCC[C@H]2C(=O)O[C@H]([C@H](C)C[C@@H]2CC[C@@H](OCCO)[C@H](OC)C2)CC(=O)[C@H](C)/C=C(\C)[C@@H](O)[C@@H](OC)C(=O)[C@H](C)C[C@H](C)/C=C/C=C/C=C/1C` [Everolimus], the normalised viability is 71.3% and 59.9% in the assay on HDQ-P1 [1] (3 nM); 54.1% and 36.7% in the assay with CAL-120 [2] (100 nM); 93.7% and 90% in the assay with MDA-MB-453 [5] (0.1 nM); 89.2% and 76.6% in the assay on CAL-85-1 [6] (0.1 nM); 85% and 84% with MFM-223 (0.1 nM); 106% and 105% in the assay on DU-4475 [7] (0.1 nM). In addition, the normalised viability was 93.9% and 95.7% with CAL-148 [8] (0.1 nM); 99.3% and 104% with CAL-51 [9] (0.1 nM); 81% and 93% with BT-549 (0.1 nM); 87.3% and 89.8% in the assay on HDQ-P1 [17]; 94.9% and 73.3% with MDA-MB-231 (0.1 nM); 58% and 70.5% with HCC1937 (0.1 nM). For the same molecule, the normalised viability in the assay with SK-BR-3 (0.1 nM) is 95.7% and 89.7%; in the assay on CAL-120 [10] (0.1 nM) it was 97.4% and 80.8%; in the assay with MDA-MB-436 (0.1 nM), 104% and 86.3%; in the assay on HCC1599 (0.1 nM) it was 101%; with Hs578T (0.1 nM), 58.9% and 73.8%; with MDA-MB-468 (0.1 nM) it was 105% and 87.7%. For the same molecule, the normalised viability is 25.4% and 15.4% with MDA-MB-453 [11] (1000 nM); 62% and 43% in the assay with CAL-85-1 [12] (1000 nM); 61.8% and 39.1% in the assay on DU-4475 [13] (1000 nM); 38% and 16.3% in the assay with CAL-148 [14] (1000 nM); 37% and 28.9% in the assay on CAL-51 [15] (1000 nM); 76.8% and 59.4% in the assay on HDQ-P1 [16] (1000 nM). The drug sensitivity score in the assay with DU-4475 [3] and with CAL-148 [4] was 0 each time.
Regarding `Cn1c(=O)n(-c2ccc(C(C)(C)C#N)cc2)c2c3cc(-c4cnc5ccccc5c4)ccc3ncc21` [Dactolisib], the drug sensitivity score in the assay on DU-4475 [3] worked out at 0; with CAL-148 [4], 11.7.
The corresponding values for `NS(=O)(=O)OC[C@@H]1C[C@@H](n2ccc3c(N[C@H]4CCc5ccccc54)ncnc32)C[C@@H]1O` [Pevonedistat] are 4.01 and 0.
The matching figures for `Nc1nc(OCc2cc(Br)cs2)c2[nH]cnc2n1` [Lomeguatrib]: 0 and 0.

Source of the values: the supplement of paper PMC4862054.
